From patent publication US4396628A (priority 1982, dated 1983)
pIC50: −log10 of the molar value. Entries after “also recorded” stand apart in the source; their conditions may differ. Where two headings read alike, the source gives them in different places.

How the values were obtained:
[1] = test system: vesicular stomatitis virus (VSV); type: cell-based, vesicular stomatitis virus; Swiss 3T3 mouse cells; conditions: 200 μM; 10 min at 37° C.; MOI 500
[2] = test system: Swiss 3T3 cells
[3] = test system: Swiss 3T3 cells; test: cytotoxicity and cellular RNA synthesis in drug-treated Swiss 3T3 cultures; conditions: Swiss 3T3, experimental protocol of FIG. 2
[4] = test system: α2 macroglobulin (α2 M) uptake, Swiss 3T3 cells; test: uptake (internalization) of 125I-α2 macroglobulin by Swiss 3T3 cells; type: cell-based, mouse; conditions: for pIC50: Mus musculus, 0.75 h, Swiss 3T3, 0.5 μg/ml 125I-α2 M, 45 min at 37° C., read-out: half-maximal inhibitory concentration, α2 M uptake; for effect on α2 macroglobulin uptake: in words
[5] = test system: vesicular stomatitis virus (VSV); test: microbe, parasite or virus in culture; type: cell-based, vesicular stomatitis virus; Swiss 3T3 mouse cells; conditions: for VSV-dependent RNA synthesis when VSV neutralizing antibody omitted (reversibility): Swiss 3T3, inhibitor-treated cultures; for pIC50: Vesicular stomatitis virus, Swiss-3T3, in Mus musculus, 10 min, read-out: half-maximal inhibitory concentration, VSV dependent RNA synthesis; for effect on VSV entry / VSV dependent RNA synthesis: in words
[6] = molecular target: T1, guinea pig liver transglutaminase (Cavia cutleri, UniProt P08587); test: guinea pig liver transglutaminase activity, incorporation of 3H-putrescine into casein; type: biochemical; conditions: for pIC50: 3H-putrescine into casein, read-out: Half-maximal Inhibitory Concentration, transglutaminase; for potency ranking in the transglutaminase assay: in words
T1 construct: guinea pig liver transglutaminase activity; from tissue; host or cells: guinea pig liver
T1 sequence (P08587 2-690): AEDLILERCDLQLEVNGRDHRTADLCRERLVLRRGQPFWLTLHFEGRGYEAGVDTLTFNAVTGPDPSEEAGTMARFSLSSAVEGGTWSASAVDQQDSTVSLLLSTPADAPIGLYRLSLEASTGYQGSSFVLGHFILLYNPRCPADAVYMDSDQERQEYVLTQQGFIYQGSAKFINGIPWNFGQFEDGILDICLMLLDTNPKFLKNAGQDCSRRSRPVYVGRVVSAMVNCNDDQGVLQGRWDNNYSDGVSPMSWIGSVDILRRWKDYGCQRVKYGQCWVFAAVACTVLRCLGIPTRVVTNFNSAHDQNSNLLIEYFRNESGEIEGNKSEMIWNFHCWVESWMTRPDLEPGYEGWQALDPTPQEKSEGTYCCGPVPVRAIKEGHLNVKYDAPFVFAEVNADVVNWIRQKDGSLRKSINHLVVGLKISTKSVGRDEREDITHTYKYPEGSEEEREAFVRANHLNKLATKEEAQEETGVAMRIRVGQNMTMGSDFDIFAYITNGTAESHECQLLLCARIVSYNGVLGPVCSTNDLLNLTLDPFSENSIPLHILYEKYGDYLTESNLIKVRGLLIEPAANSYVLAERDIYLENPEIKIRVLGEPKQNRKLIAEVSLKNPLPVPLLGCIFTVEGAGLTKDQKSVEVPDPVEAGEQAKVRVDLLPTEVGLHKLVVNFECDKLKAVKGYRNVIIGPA
Procedure: Effect of Dansylcadaverine, Amantadine, and Rimantadine
on the Activity of Guinea Pig Liver Transglutaminase
Enzyme activity was measured by the incorporation of ^3 H-putrescine into casein. All three inhibitors of viral and α2 M internalization were also inhibitory in the transglutaminase assay.

[7] = test system: vesicular stomatitis virus (VSV); type: cell-based, vesicular stomatitis virus; Swiss 3T3 mouse cells; conditions: for effect on uptake of VSV and α2 M via coated pits: Swiss 3T3, EM
[8] = test system: α2 M in coated pits, Swiss 3T3 cells; test: electron microscopy (peroxidase staining) of α2 M appearance in coated pits of Swiss 3T3 cells; type: cell-based, mouse; conditions: 250 μg/ml α2 M; for α2 M appearance in coated pits: 45 min at 4° C., varying inhibitor concentrations
Procedure: Swiss 3T3 cells were incubated with 250 μg/ml α2 M at 4° C., with and without inhibitor. Em localization of α2 M was performed using a peroxidase staining technique.
Varying concentrations of amantadine and rimantadine were present during the incubation period. The cells were then washed, fixed for EM and the α2 M located by the peroxidase method. […] In the absence of inhibitors, α2 M was easily detected in coated pits by the peroxidase techniques (FIG. 5B).

CN(C)c1cccc2c(S(=O)(=O)NCCCCCN)cccc12 [dansylcadaverine]
intracellular VSV G protein / VSV uptake by immunofluorescence [1]: little or no G protein
cellular RNA synthesis, drug-treated versus control cultures [2]: equivalent in control and drug-treated cultures
cytotoxicity [3]: no evidence of cytotoxicity
pIC50 [4]: 3.82
effect on α2 macroglobulin uptake [4]: inhibit the uptake of α2 macroglobulin
VSV-dependent RNA synthesis when VSV neutralizing antibody omitted (reversibility) [5]: control levels of VSV-dependent RNA synthesis
pIC50 [5]: 4.30
potency relative to amantadine, VSV uptake (antiviral) ([5]; dansylcadaverine versus amantadine): 20 fold
effect on VSV entry / VSV dependent RNA synthesis [5]: blocking virus (such as vesicular stomatitis virus, VSV), and α2 macroglobulin uptake; also recorded: reduction of VSV-dependent RNA synthesis; also recorded: inhibit VSV entry; also recorded: reduced VSV dependent RNA synthesis
pIC50 [6]: 3.70
potency ranking in the transglutaminase assay [6]: most potent
coated pit appearance in VSV-infected cells by EM ([7]; 100 μM dansylcadaverine (FIG. 4D)): vacant coated pit
coated pit appearance in VSV-infected cells by EM ([7]; 500 μM dansylcadaverine (FIG. 4E)): vacant coated pit
effect on uptake of VSV and α2 M via coated pits [7]: drastically perturbed this uptake mechanism

NC12CC3CC(CC(C3)C1)C2 [amantadine, 1-adamantanamine]
cellular RNA synthesis, drug-treated versus control cultures [2]: equivalent in control and drug-treated cultures
cytotoxicity [3]: no evidence of cytotoxicity
pIC50 [4]: 2.60
effect on α2 macroglobulin uptake [4]: inhibit the uptake of α2 macroglobulin
VSV-dependent RNA synthesis when VSV neutralizing antibody omitted (reversibility) [5]: control levels of VSV-dependent RNA synthesis
pIC50 [5]: 3.00
effect on VSV entry / VSV dependent RNA synthesis [5]: reduction of VSV-dependent RNA synthesis; also recorded: inhibit VSV entry; also recorded: reduced VSV dependent RNA synthesis
pIC50 [6]: 1.70
potency ranking in the transglutaminase assay [6]: third
α2 M appearance in coated pits [8]: inhibition of α2 M appearance in coated pits
α2 M localization by EM ([8]; 5 mM amantadine, 4° C. (FIG. 5C)): α2 M bound diffusely to the plasma membrane
effect on uptake of VSV and α2 M via coated pits [7]: drastically perturbed this uptake mechanism

CC(N)C12CC3CC(CC(C3)C1)C2 (stereo not drawn) [rimantadine]
pIC50 [4]: 3.30
pIC50 [6]: 2.30
potency ranking in the transglutaminase assay [6]: second most potent
α2 M appearance in coated pits [8]: inhibition of α2 M appearance in coated pits
α2 M localization by EM ([8]; 1 mM rimantadine, 4° C. (FIG. 5D)): α2 M bound to plasma membrane
coated pit appearance in VSV-infected cells by EM ([7]; 1 mM rimantadine (FIG. 4F)): vacant coated pit
effect on uptake of VSV and α2 M via coated pits [7]: drastically perturbed this uptake mechanism
